Test results from US20240043439A1, “COMPOUNDS AS C5AR INHIBITORS” (Kira Pharmaceuticals (Suzhou) Ltd., priority 2020, published 2024).

Assays:
C5aR = C5aR (Homo sapiens (Human), UniProt P21730); experiment: Calcium mobilization (U937/C5aR or HEK293/C5aR cells, FLIPR); format: cell-based; details: agonist human C5a at EC80, FLIPR
Outline: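 U937 or HEK293 cells expressing human C5aR, plated overnight, then preincubated 60 min with compound. After Fluo-4 Direct dye loading (50 min at 37 °C, 10 min at room temperature), intracellular calcium rise on FLIPR was triggered by human C5a agonist at EC80.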

[1] = molecular target: human C5a receptor (C5aR) (Homo sapiens (Human), UniProt P21730); experiment: Inhibition of C5a-C5aR binding (biotinylated human C5a, U937/C5aR cells, FACS)
Chain of human C5a receptor (C5aR) (P21730 whole entry): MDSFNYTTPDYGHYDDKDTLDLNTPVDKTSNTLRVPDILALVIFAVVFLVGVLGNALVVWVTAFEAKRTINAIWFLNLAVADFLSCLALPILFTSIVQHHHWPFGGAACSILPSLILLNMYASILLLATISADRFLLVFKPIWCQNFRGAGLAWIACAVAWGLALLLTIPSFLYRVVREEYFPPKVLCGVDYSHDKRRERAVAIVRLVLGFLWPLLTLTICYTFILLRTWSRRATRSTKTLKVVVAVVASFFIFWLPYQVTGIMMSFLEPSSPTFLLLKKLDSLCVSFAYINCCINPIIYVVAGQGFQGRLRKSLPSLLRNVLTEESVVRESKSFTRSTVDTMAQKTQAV
Procedure: U937 cells were originally obtained from the American Type Culture Collection (ATCC) and transfected with human C5a receptor (C5aR). U937/C5aR cells were cultured at 37° C., 5% CO2 in RPMI1640 (Gibco) supplemented with 10% FBS (Gibco) and 350 µg/ml Geneticin (Gibco) and passaged every 3 days to maintain the density range from […] to 2×10^6 cells/ml.
Human C5a biotinylation was performed according to the procedure provided by manufacturer (Thermo Scientific, A39257). 10 mM solution of Sulfo-NHS-LC-Biotin was prepared by adding 180μl ultrapure H2O to the 1 mg vial immediately. 12 μl 10 mM biotin reagent was added to […] human C5a solution, gently pipetted for 3 seconds, and incubated on ice for 2 hours. Amicon ultra-0.5 centrifuge filter device (Millipore, UFC5003BK) was pre-rinsed with Milli-Q H2O, centrifuged at 14000 g for 5 min immediately before use. Up to […] sample (diluted by PBS) was added to the device and capped. The device was spinned at 14000 g for approximately 5 min. 250 μl PBS was added to the filter device, spinned at 14000 g for 5 min, and repeatedly washed 6 times. The filter device was separated from the microcentrifuge tube and placed upside down in a clean microcentrifuge tube, spinned for 2 min at 1000 g to transfer the concentrated sample from the device to the tube.
U937/C5aR cells were collected and washed twice by PBS, cells were suspended in PBS+0.1% BSA buffer at the density of 3×10^6 cells/ml. 100 μl cell suspension was added to a 96 well microplate. 50 μl compound diluted in assay buffer and 50 μl biotinylated ligand human C5a (30 nM) were added to corresponding wells in order and the plate was incubated on ice for 120 min and then centrifuged at 1000 rpm for 3-5 min at 4° C. Supernatant was removed and cells were washed by pre-cold PBS twice. 100 μl FITC conjugated streptavidin was added to cells, incubated on ice for another 30 min, and then centrifuged at 1000 rpm for 3-5 min at 4° C. Supernatant was removed and cells were washed by pre-cold PBS twice. 150 μl PBS was added to suspend the cells and signals were detected by FACS (Beckman, Cytoflex).

Chain of C5aR (P21730 whole entry): as above

Row | IC50 (C5aR) | IC50 [1] | Structure (SMILES)
1 | 2 to 10 µM | 2 to 5 µM | Cc1cccc(F)c1C(=O)N1C2CCC[C@@H]2C[C@H](C(=O)Nc2ccnc(C(F)(F)F)c2)[C@@H]1c1ccc(NC2CCCC2)cc1 (relative stereo) [Compound 79, cis-2-(4-(cyclopentylamino)phenyl)-1-(2-fluoro-6-methylbenzoyl)-N-(2-(trifluoromethyl)pyridin-4-yl)octahydro-1H-cyclopenta[b]pyridine-3-carboxamide]
2 | > 10 µM | 2 to 5 µM | Cc1ccc(NC(=O)C2C[C@H]3CCC[C@H]3N(C(=O)c3cn(C)cn3)C2c2ccc(NC3CCCC3)cc2)cc1C(F)(F)F (relative stereo) [Compound 113, cis-2-(4-(cyclopentylamino)phenyl)-1-(1-methyl-1H-imidazole-4-carbonyl)-N-(4-methyl-3-(trifluoromethyl)phenyl)octahydro-1H-cyclopenta[b]pyridine-3-carboxamide]
3 | 2 to 10 µM | 2 to 5 µM | Cc1cccc(F)c1C(=O)N1C2COC[C@@H]2C[C@H](C(=O)Nc2ccccc2)[C@@H]1c1ccc(NC2CCOCC2)cc1 (relative stereo) [Compound 129, cis-1-(2-fluoro-6-methylbenzoyl)-N-phenyl-2-(4-((tetrahydro-2H-pyran-4-yl)amino)phenyl)octahydrofuro[3,4-b]pyridine-3-carboxamide]
4 | 2 to 10 µM | 2 to 5 µM | Cc1ccc(NC(=O)[C@H]2CCCN(c3ccnc(Cl)n3)[C@H]2c2ccc(NC3CCCC3)cc2)cc1C(F)(F)F [Compound 2, (2R,3S)-1-(2-chloropyrimidin-4-yl)-2-(4-(cyclopentylamino)phenyl)-N-(4-methyl-3-(trifluoromethyl)phenyl)piperidine-3-carboxamide]
5 | 2 to 10 µM | 2 to 5 µM | Cc1ccc(NC(=O)[C@H]2CCCN(c3ccncn3)[C@H]2c2ccc(NC3CCCC3)cc2)cc1C(F)(F)F [Compound 4, (2R,3S)-2-(4-(cyclopentylamino)phenyl)-N-(4-methyl-3-(trifluoromethyl)phenyl)-1-(pyrimidin-4-yl)piperidine-3-carboxamide]
6 | 2 to 10 µM | 0.5 to 2 µM | Cc1ccc(NC(=O)[C@H]2CCCN(c3nccc4cccnc34)[C@H]2c2ccc(NC3CCCC3)cc2)cc1C(F)(F)F [Compound 6, (2R,3S)-2-(4-(cyclopentylamino)phenyl)-N-(4-methyl-3-(trifluoromethyl)phenyl)-1-(1,7-naphthyridin-8-yl)piperidine-3-carboxamide]
7 | 2 to 10 µM | 2 to 5 µM | Cc1ccc(NC(=O)[C@@H]2CCCN(c3ncnc4cccnc34)[C@H]2c2ccc(NC3CCCC3)cc2)cc1C(F)(F)F [Compound 7, (2R,3R)-2-(4-(cyclopentylamino)phenyl)-N-(4-methyl-3-(trifluoromethyl)phenyl)-1-(pyrido[3,2-d]pyrimidin-4-yl)piperidine-3-carboxamide]
8 | 2 to 10 µM | 2 to 5 µM | Cc1ccc(NC(=O)[C@H]2CCCN(S(=O)(=O)c3c(C)noc3C)[C@H]2c2ccc(NC3CCCC3)cc2)cc1C(F)(F)F [Compound 8, (2R,3S)-2-(4-(cyclopentylamino)phenyl)-1-((3,5-dimethylisoxazol-4-yl)sulfonyl)-N-(4-methyl-3-(trifluoromethyl)phenyl)piperidine-3-carboxamide]
9 | 2 to 10 µM | 2 to 5 µM | Cc1ccc(S(=O)(=O)N2CCC[C@H](C(=O)Nc3ccc(C)c(C(F)(F)F)c3)[C@@H]2c2ccc(NC3CCCC3)cc2)c(C)c1 [Compound 9, (2R,3S)-2-(4-(cyclopentylamino)phenyl)-1-((2,4-dimethylphenyl)sulfonyl)-N-(4-methyl-3-(trifluoromethyl)phenyl)piperidine-3-carboxamide]
10 | > 10 µM | 0.5 to 2 µM | Cc1ccc(C)c(S(=O)(=O)N2CCC[C@H](C(=O)Nc3ccc(C)c(C(F)(F)F)c3)[C@@H]2c2ccc(NC3CCCC3)cc2)c1 [Compound 10, (2R,3S)-2-(4-(cyclopentylamino)phenyl)-1-((2,5-dimethylphenyl)sulfonyl)-N-(4-methyl-3-(trifluoromethyl)phenyl)piperidine-3-carboxamide]
11 | 2 to 10 µM | 0.5 to 2 µM | Cc1ccc(NC(=O)[C@H]2CCCN(S(=O)(=O)c3c(C)cccc3C)[C@H]2c2ccc(NC3CCCC3)cc2)cc1C(F)(F)F [Compound 11, (2R,3S)-2-(4-(cyclopentylamino)phenyl)-1-((2,6-dimethylphenyl)sulfonyl)-N-(4-methyl-3-(trifluoromethyl)phenyl)piperidine-3-carboxamide]
12 | 2 to 10 µM | 2 to 5 µM | Cc1cc(C)c(S(=O)(=O)N2CCC[C@H](C(=O)Nc3ccc(C)c(C(F)(F)F)c3)[C@@H]2c2ccc(NC3CCCC3)cc2)c(C)c1 [Compound 13, (2R,3S)-2-(4-(cyclopentylamino)phenyl)-1-(mesitylsulfonyl)-N-(4-methyl-3-(trifluoromethyl)phenyl)piperidine-3-carboxamide]
13 | 2 to 10 µM | 2 to 5 µM | Cc1ccc(NC(=O)[C@H]2CCCN(S(=O)(=O)c3ccccc3[N+](=O)[O-])[C@H]2c2ccc(NC3CCCC3)cc2)cc1C(F)(F)F [Compound 14, (2R,3S)-2-(4-(cyclopentylamino)phenyl)-N-(4-methyl-3-(trifluoromethyl)phenyl)-1-((2-nitrophenyl)sulfonyl)piperidine-3-carboxamide]
14 | 2 to 10 µM | 2 to 5 µM | Cc1ccc(NC(=O)[C@H]2CCCN(S(=O)(=O)c3ccc(F)cc3C)[C@H]2c2ccc(NC3CCCC3)cc2)cc1C(F)(F)F [Compound 15, (2R,3S)-2-(4-(cyclopentylamino)phenyl)-1-((4-fluoro-2-methylphenyl)sulfonyl)-N-(4-methyl-3-(trifluoromethyl)phenyl)piperidine-3-carboxamide]
15 | > 10 µM | 2 to 5 µM | Cc1ccc(NC(=O)[C@H]2CCCN(S(=O)(=O)c3cccc(Cl)c3C)[C@H]2c2ccc(NC3CCCC3)cc2)cc1C(F)(F)F [Compound 16, (2R,3S)-1-((3-chloro-2-methylphenyl)sulfonyl)-2-(4-(cyclopentylamino)phenyl)-N-(4-methyl-3-(trifluoromethyl)phenyl)piperidine-3-carboxamide]
16 | 2 to 10 µM | 0.5 to 2 µM | Cc1ccc(NC(=O)[C@H]2CCCN(S(=O)(=O)c3cc(F)ccc3C)[C@H]2c2ccc(NC3CCCC3)cc2)cc1C(F)(F)F [Compound 17, (2R,3S)-2-(4-(cyclopentylamino)phenyl)-1-((5-fluoro-2-methylphenyl)sulfonyl)-N-(4-methyl-3-(trifluoromethyl)phenyl)piperidine-3-carboxamide]
17 | > 10 µM | 2 to 5 µM | Cc1ccc(NC(=O)[C@H]2CCCN(S(=O)(=O)c3cccc(F)c3C)[C@H]2c2ccc(NC3CCCC3)cc2)cc1C(F)(F)F [Compound 18, (2R,3S)-1-((3-fluoro-2-methylphenyl)sulfonyl)-2-(4-(cyclopentylamino)phenyl)-N-(4-methyl-3-(trifluoromethyl)phenyl)piperidine-3-carboxamide]

Row | Structure (SMILES) | IC50 (C5aR) | IC50 [1]
18 | Cc1ccc(NC(=O)C2C[C@@H]3CCC[C@@H]3N(C(=O)c3c(C)cccc3F)C2c2ccc(NC3CCCC3)cc2)cc1P(C)(C)=O (relative stereo) [Compound 76, cis-2-(4-(cyclopentylamino)phenyl)-N-(3-(dimethylphosphoryl)-4-methylphenyl)-1-(2-fluoro-6-methylbenzoyl)octahydro-1H-cyclopenta[b]pyridine-3-carboxamide] | 2 to 10 µM | 2 to 5 µM
19 | Cc1cccc(F)c1C(=O)N1C(c2ccc(NC3CCCC3)cc2)C(C(=O)Nc2ccc3c(c2)CCNC3)C[C@@H]2CCC[C@@H]21 (relative stereo) [Compound 184, cis-2-(4-(cyclopentylamino)phenyl)-1-(2-fluoro-6-methylbenzoyl)-N-(1,2,3,4-tetrahydroisoquinolin-6-yl)octahydro-1H-cyclopenta[b]pyridine-3-carboxamide] | 2 to 10 µM | 2 to 5 µM
20 | Cc1cccc(F)c1C(=O)N1C(c2ccc(N(C)C3CCCC3)cc2)C(C(=O)Nc2ccc3c(c2)CCN(C)C3)C[C@@H]2CCC[C@@H]21 (relative stereo) [Compound 201, cis-2-(4-(cyclopentyl(methyl)amino)phenyl)-1-(2-fluoro-6-methylbenzoyl)-N-(2-methyl-1,2,3,4-tetrahydroisoquinolin-6-yl)octahydro-1H-cyclopenta[b]pyridine-3-carboxamide] | 2 to 10 µM | > 5 µM
